Source: patent US20250281465A1, “MOLECULES THAT ENHANCE EXTRACELLULAR VESICLE RELEASE” (priority 2022, published 2025)
Entries after “also recorded” stand apart in the source; their conditions may differ.

Key:
mBMDCs [1] = experiment: Cell viability / cytotoxicity in mBMDCs (MTT); type: cell-based, mouse; settings: mBMDCs, Example 2 clustered hits
Protocol: FIGS. 30A-30B. […] After 48 hours incubation, cell viability was determined by MTT assay.
mBMDCs (10^5 cells/200 μL/well) were treated with 10 and 5 μM of a test compound in 96-well plates overnight. After 18 hours of drug treatment, MTT (0.5 mg/ml) was added to each well. The cells were lysed after 6-8 hours incubation, and absorbance values at 570 and 650 nm were measured. PrestoBlue reagent (#A13261, Thermo Fisher Scientific) was used for cell viability assay in CD63 HTS as described earlier.
Cell viability assay. mBMDCs (2×10^6 cells/200 μL/well in RPMI1640 supplemented with dialyzed 10% FBS, or 1.5×10^6 cells/200 μL/well in RPMI1640 supplemented with 10% exosome depleted FBS) were treated with 10 μM of each test compound in 96-well plates. After 46-48 hours of compound treatment, MTT (0.5 mg/mL) was added to each well. The cells were lysed after overnight incubation, and absorbance values at 570 and 650 nm were measured.

mBMDCs [2] = experiment: EV release from mBMDCs (differential ultracentrifugation, MRPS); settings: 10 μM, 46-48 h, vs Veh
THP-1 cells = experiment: Intracellular Ca2+ influx screening (Fura-2) in THP-1 cells; type: cell-based, human; settings: hit candidate compounds 10 μM, 25 minutes, vs vehicle control (DMSO)
Protocol: FIGS. 1A-1D. Intracellular Ca^2+ influx screening of 84 HTS hit candidate compounds. (A) THP-1 cells were loaded with the ratiometric Ca^2+ indicator, Fura-2, and treated with lonomycin (ION, 1 μM), Thapsigargin (1 μM), or 84 hit candidate compounds (10 μM) for 25 minutes. Data are presented as the area under the curve (AUG) of OD340/380 ratios corresponding to the intracellular Ca^2+ kinetics. The baseline-subtracted AUG was calculated using GraphPad Prism (GraphPad Software, San Diego, CA). (B) Ca^2+ mobilization by compound #634. mBMDCs were loaded with the ratiometric Ca^2+ indicator, Fura-8, and treated with ION (1 μM), or #634 (2 and 10 μM) for 25 minutes. The dashed line indicates the timing of compounds added. The data shown are representative of three independent experiments showing similar results. (C) Ca^2+ add-back assay. Fura-8-loaded mBMDC were treated with ION (1 μM), or compound #634 (2 μM, 10 μM) for 15 minutes in the absence of extracellular Ca^2+, and then Ca^2+ (final 1.8 mM) was added at 15 minutes. Data shown are representative of three independent experiments showing similar results. (D) C57BL/6 mice (n=5/group) were intramuscularly immunized with ovalbumin (OVA, 20 μg/mouse) adjuvanted with compound #634 (200 nmol/mouse), or Veh (10% DMSO) on days 0 and 21 and bled on day 28. OVA-specific IgGI and IgG2c levels in sera were determined by ELISA. **p<0.01, ***p<0.001, ns (not significant) by KruskalWallis tests with Dunn's post hoc test vs. Veh.
FIGS. 18A-18C. Compound 634 induces intracellular Ca^2+ levels in mBMDCs. […] The time-response pattern of intracellular Ca^2+ levels was recorded for 25 minutes. AUC of OD340/380 ratios corresponds to the intracellular Ca^2+ kinetics, and the baseline-subtracted AUC was calculated by GraphPad Prism. […]
FIGS. 24A-24B. […] The time-response pattern of intracellular Ca^2+ levels was recorded with a plate reader for 25 minutes. (A) The AUC of OD340/380 ratios corresponds to the intracellular Ca^2+ kinetics and the baseline-subtracted AUC was calculated by GraphPad Prism (FIG. 36). […]

NF-κB = experiment: NF-κB-bla THP-1 HTS; type: cell-based, human; settings: 10 μM, 5 hours
Protocol: The robotic HTS using the three reporter cells were performed using 384-well plates by the SelectScreen™ service, Thermo Fisher Scientific (Madison, WI) (Pu et al., 2012; Chan et al., 2017b; Shukla et al., 2018). For HTS using NF-κB-bla and ISRE-bla THP-1 cells, LPS (100 ng/ml) and human IFN-α (50 nM) were used as the positive controls, respectively, while 0.5% DMSO was used as vehicle (Veh). The cells were incubated with compounds (10 μM) for 5 hours, and LiveBLAzer™ FRET BIG substrate (CCF4-AM) mixture was added. Fluorescence was measured at an excitation wavelength of 405 nm, and emission wavelengths of 465 and 535 nm. The background values were subtracted from the raw values (cell-free wells at the same fluorescence wavelength). Emission ratios were calculated by dividing background-subtracted values from em1ss1on wavelength of 465 nm by those from emission wavelength of 535 nm. The response ratio (RR) was calculated as follows (emission ratio of a test well)/(average emission ratio of wells with Veh). Further, for comparison of activity, “% activation” for each compound was computed within the plate as 100×(compound RR−average Veh RR)/(average LPS RR−average Veh RR).

## COC(=O)c1sc(-c2cccs2)cc1NS(=O)(=O)c1ccsc1C(=O)OC [#504]
mBMDCs [1]
  MTT assay values (cell viability): higher MTT values
mBMDCs [2]
  number of EV particles released in the culture supernatant: low
THP-1 cells
  intracellular Ca^2+ increase (Fura-2 assay): higher intracellular Ca^2+ increase than vehicle control; also recorded: potent in calcium Fura-2 assay
NF-κB
  NF-κB activity (primary HTS): much lower NF-κB inducing activity
